# Experimental data from US20090068290A1, “BIFEPRUNOX DOSES FOR TREATING SCHIZOPHRENIA” (priority 2006, published 2009).
# Read-outs that look alike come from different tables or passages of the source.
# Tests used:
# [1] = Pharmacokinetics of bifeprunox, pooled analysis and population PK; format: in vivo, human; conditions: for half-life: read-out: mean plasma steady-state (elimination) half-life (converted)
# Text: The objective of this study is to assess the pharmacokinetics (PK) of bifeprunox. The PK of bifeprunox in healthy subjects were investigated based on a pooled analysis of PK parameters from 21 clinical pharmacology studies. The pooled analysis included PK profiles after single and multiple doses to 132 and 399 subjects, respectively, and explored the potential effects of age, gender, body weight, and race. In addition, PK in patients with schizophrenia were investigated using a population PK approach based on samples from 376 patients in phase II studies and 434 patients in phase III studies.
# [2] = Pharmacokinetic interaction of lithium and bifeprunox in healthy male subjects; format: in vivo, human; conditions: bifeprunox up to 40 mg per day and lithium 450 mg twice daily
# Procedure: Because bifeprunox may be used in combination with the mood-stabilizing drug lithium for the treatment of patients with psychoses and mood disorders, the effect of multiple doses of bifeprunox on the pharmacokinetic (PK) profile of lithium was evaluated. Lithium has a narrow therapeutic index that can complicate therapy, and serum levels greater than 1.5 mmol/L carry a greater risk of lithium toxicity than do lower levels.
# METHODS: This was a single center, double-blind, randomized, placebo-controlled, parallel-design study in 48 healthy male subjects. All subjects were to receive open-label lithium (450 mg) twice daily on days 1 through 8 and, provided serum levels were stable on days 5 through 7, again on days 9 through 20. Subjects whose serum levels were stable on days 5 through 7 were included in those randomized to receive, in addition to lithium 450 mg twice daily, either placebo or a rising dose of bifeprunox (0.025-40 mg) once daily on days 9 through 17, and placebo or bifeprunox 40 mg on days 18 through 21. Only a single morning dose of lithium 450 mg was administered on day 21. Lithium, steady-state Cmax, AUC over the dosing interval (0-t), and renal clearance (CL-R) values were compared between the bifeprunox and placebo groups using ANCOVA with baseline values of lithium measured on day 8 as covariate.
# [3] = Pooled metabolic analysis, 6-month study: body weight; conditions: for Weight, Mean (SD) change from baseline: endpoint
# Text: OBJECTIVE: To examine the metabolic effects of bifeprunox in patients with acute and stable schizophrenia.
# METHODS: Metabolic data was compiled from one 6-month and four 6-week studies (i.e., a treatment period) of bifeprunox in patients with stable and acute schizophrenia, respectively. In the 6-month study, patients received bifeprunox (n=331) or placebo (PBO) (n=166). […] Metabolic evaluations included body weight, body mass index (BMI), plasma glucose and lipid profiles. Fasting glucose and lipid values were assessed in one 6-week study and in the 6-month study. Triglyceride:HDL ratio (TG:HDL) was calculated as a marker of insulin resistance. No statistical analyses were performed; only descriptive statistics are presented.
# [4] = baseline BMI 18.5-25 kg/m^2, BX total doses
# [5] = baseline BMI <18.5 kg/m^2, BX total doses
# [6] = baseline BMI >25-30 kg/m^2, BX total doses
# [7] = baseline BMI >30 kg/m^2, BX total doses
# [8] = baseline BMI All, BX total doses
smiles,measurement,setting,value
"O=c1[nH]c2cccc(N3CCN(Cc4cccc(-c5ccccc5)c4)CC3)c2o1 [Bifeprunox, 7-[4-([1,1′-biphenyl]-3-ylmethyl)-1-piperazinyl]-2(3H)-benzoxazolone]",half-life,"[1]; human, in vivo, po",14.4 h
same,Tmax,"[1]; human, in vivo, oral administration, all dose levels",1.5 to 2 h
same,half-life,"[1]; human, in vivo, oral",~14 h
same,dose proportionality of multiple-dose PK,[1],dose-proportional in the 20-40 mg/day range
same,dose proportionality of multiple-dose PK,[1]; listed as bifeprunox,dose-proportional in the 2040 mg range
same,"age-, gender-, body weight- or race-related effects on PK",[1]; pooled analysis,"No clinically significant age-, gender-, body weight- or race-related effects"
same,mean apparent clearance,"[1]; steady-state, oral",62.2 L/h
same,mean apparent volume of distribution,"[1]; steady-state, oral",1300 L
same,tolerability of combined administration,[2],well tolerated
same,"≧7% weight decrease, (%)",[3]; [4],8.7%
same,"≧7% weight increase, (%)",[3]; [4],3.3%
same,"≧7% weight decrease, (%)",[3]; [5],23.1%
same,"≧7% weight decrease, (%)",[3]; [6],4.7%
same,"≧7% weight increase, (%)",[3]; [6],2.4%
same,"≧7% weight decrease, (%)",[3]; [7],12.8%
same,"≧7% weight decrease, (%)",[3]; [8],8.8%
same,"≧7% weight increase, (%)",[3]; [8],2.5%
same,"Weight, Mean (SD) change from baseline",[3]; [4],−0.9 (2.9) kg
same,"Weight, Mean (SD) change from baseline",[3]; [5],−0.8 (2.6) kg
same,"Weight, Mean (SD) change from baseline",[3]; [6],−0.9 (2.7) kg
same,"Weight, Mean (SD) change from baseline",[3]; [7],−3.0 (5.6) kg
same,"Weight, Mean (SD) change from baseline",[3]; [8],−1.1 (3.3) kg
same,mean weight change,[3]; final evaluation (LOCF),-1.1 kg
same,mean change in weight,[3]; patients with nausea or vomiting,-1.4 kg
same,mean change in weight,[3]; patients without nausea or vomiting,-1.0 kg
